Measured values reported in US12440454B2, “Pharmaceutical compositions containing hemp extract for administration to felines and related methods” (Portland Technology Holdings LLC, priority 2022, dated 2025).

Columns and labels:
[1] = 24 hour pharmacokinetic analysis of serum cannabinoids after oral CBD/CBDA rich hemp paste; conditions: for detectability in serum of cats at any time point: 24 hour PK; for Css Ave (calculated predicted 5 half-life mean serum concentration): predicted steady state from one compartment model
Source text: (§1) Eight cats from a contract research laboratory (Summit Ridge Farms, Gibson, PA) were utilized for this experiment. 4 spayed female cats and 4 neutered male cats were used. […] The cat population ranged from 4.1 kg to 5.4 kg (mean weight 4.7 kg). An initial dosage of 1 g of paste was fed to each cat at zero hours. Additionally, and after the initial 24-hour pharmacokinetic assessment, treatment with 1 g of paste resumed on the next day for 6 days, twice daily at 7 am and 4 pm each day. […] Cats were fed their normal daily meal approximately 1 hour after oral paste consumption. The base of the paste was a proprietary mix of soy oil, dextrose, dried chicken liver, silica, inulin, polysorbate 60, potassium sorbate, sorbic acid, saccharin, mixed tocopherols, methylparaben, propylparaben in descending order of volume with 15% cannabinoid rich hemp oil emulsified with the product. Prior to enrollment all cats involved in the study were deemed healthy and normal based on physical examination, complete blood count and serum chemistry assessment. During the 1-week trial examination of all cats were assessed at the 1 and 4 hour time point after morning dosing. The assessment included examination for physical abnormalities and examination for adverse events including diarrhea, vomiting, lethargy, somnolence, ataxia, or abnormal behavior within the colony during treatment. Regarding the 24 hour pharmacokinetic study, two milliliters of blood was drawn via jugular venipuncture for all 8 cats prior to the initial dose and then again at 0.5, 1, 2, 4, 8 and 24 hours for a 7 point pharmacokinetic analysis. Complete blood counts, serum chemistry and serum cannabinoid concentrations were performed before the initial treatment and at the end of day 7 treatment, 6 hours after the morning treatment. Complete blood count data included white blood cells (WBC), hematocrit, hemoglobin, red blood cells (RBC), neutrophils, lymphocytes, platelets, monocytes, eosinophils, basophils). Serum biochemistry analyses included sodium, potassium, chloride, magnesium, calcium, phosphorus, albumin, total protein, globulin, urea nitrogen, creatinine, alkaline phosphatase (ALP), alanine aminotransferase (ALT), aspartate amino transferase (AST), cholesterol, total bilirubin, glucose and gamma glutamyl transferase (GGT) with a focus of this report being renal and hepatic parameters. All blood parameters measured were performed at the Cornell University Diagnostic Laboratory.
(§2) Analysis was performed using an exploratory (fit-for-purpose) method for fast measurement of thirteen cannabinoids and their metabolites at the Toxicology Research Laboratory, University of Illinois at Chicago.
Cat serum (40 μL) was mixed with 20 μL of internal standards [100 ng/mL of CBD-d3, THC-d3, THCA-d3, 7-COOH-CBD-d3, 7-OH-CBD-d5, 11-OH-THC-d3, COOH-THC-d9, and COOH-THC-Glu-d3 in water:methanol (50:50)] in a 96 well plate. Proteins were precipitated and compounds were extracted by adding 100 μL of ice-cold acetonitrile to the samples, then vortexing for 1-2 minutes and centrifuging at 4,000 rpm for 10 minutes at 4° C. Supernatants (70 μL) were mixed with 70 μL of water in a different 96 well plate, and centrifuged again. […] The column was equilibrated with mobile phase A (0.1% formic acid in water) and mobile phase B (acetonitrile) at 50% B. The compounds were eluted by a linear gradient from 50% B to […] over 6 minutes, and then held at 95% B for 1 minute. Subsequently, the column was re-equilibrated at initial composition for 1 minute at a flow rate of 0.3 mL/min. The autosampler and column temperature were set a 4 and 30° C., respectively. The compounds were detected in electrospray ionization positive and/or negative mode.

[2] = Serum cannabinoid concentrations after one week of twice daily dosing (day 7, 6 hours post morning dose) compared with predicted steady state; conditions: Student T-test
Source text: as §1, §2
Cat serum (40 μL) was mixed with 20 μL of internal standards [100 ng/mL of CBD-d3, THC-d3, THCA-d3, 7-COOH-CBD-d3, 7-OH-CBD-d5, 11-OH-THC-d3, COOH-THC-d9, and COOH-THC-Glu-d3 in water:methanol (50:50)] in a 96 well plate. Proteins were precipitated and compounds were extracted by adding 100 μL of ice-cold acetonitrile to the samples, then vortexing for 1-2 minutes and centrifuging at 4,000 rpm for 10 minutes at 4° C. Supernatants (70 μL) were mixed with 70 μL of water in a different 96 well plate, and centrifuged again. […] The compounds were detected in electrospray ionization positive and/or negative mode.

[3] = both, cat, in vivo, po, 1 g of paste
[4] = both, in vivo, po, 1 g of paste
[5] = cats, single oral 1 g paste, serum, 0-24 h, mean ± SD
[6] = cats, single oral 1 g paste, serum, mean ± SD

In the case of `C=C(C)[C@@H]1CCC(C(=O)O)=C[C@H]1c1c(O)cc(CCCCC)cc1O` [7-COOH-CBD, 7-COOH cannabidiol], the “detectability in serum of cats at any time point” value (shortened to “detectability in serum of cats”) ([1]; cats, serum) is reported as “found in all cats”.

In the case of `C=C(C)[C@@H]1CCC(CO)=C[C@H]1c1c(O)cc(CCCCC)cc1O` [7-OH-CBD, 7-OH-cannabidiol], the “detectability in serum of cats” value ([1]; cats, serum) is reported as “either below the detectable limit for the analyte or less than half of the population showed any appreciable concentration” and the “cats showing no detectable concentrations of this metabolite” value ([1]; of the 8 cats, serum) is reported as 5.

With `CCCCCc1cc(O)c2c(c1)OC(C)(C)[C@@H]1CCC(CO)=C[C@@H]21` [11-OH-THC, 11-OH-tetrahydrocannabinol] the “detectability in serum of cats” value ([1]; cats, serum) was “either below the detectable limit for the analyte or less than half of the population showed any appreciable concentration”.

With `CCCCCc1cc(O)c2c(c1)OC(C)(CCC=C(C)C)C=C2` (centres unmarked) [CBC, cannabichromene] the “detectability in serum of cats” value ([1]; cats, serum) was “either below the detectable limit for the analyte or less than half of the population showed any appreciable concentration”.

For `C=C(C)[C@@H]1CCC(C)=C[C@H]1c1c(O)cc(CCCCC)cc1O` [CBD, cannabidiol, reference compound], the Cmax [1, 3] was 282 ng/mL, the AUC(0-t) [1, 4] was 908 ± 528 ng·h/mL and the Tmax [1, 4] was 2 h. The half-life [1, 4] was 2.1 ± 1.1 h, the “Css Ave (calculated predicted 5 half-life mean serum concentration)” value ([1]; cats, mean ± SD) was 102.1 ± 46.3 ng/mL and the “predicted steady state (Css Ave) versus actual serum concentration” value [2] was “predicted concentration was higher than the actual concentration”.

For `C=C(C)[C@@H]1CCC(C)=C[C@H]1c1c(O)cc(CCCCC)c(C(=O)O)c1O` [CBDA, cannabidiolic acid], the Cmax [1, 3] was 1010 ng/mL, the AUC(0-t) [1, 4] was 2640 ± 1280 ng·h/mL and the Cmax [1, 4] was 1010 ± 495 ng/mL. The Tmax [1, 4] was 1.6 ± 1.1 h, the “Css Ave (calculated predicted 5 half-life mean serum concentration)” value ([1]; cats, mean ± SD) was 204.5 ± 87.8 ng/mL and the “predicted steady state (Css Ave) versus actual serum concentration” value [2] was “predicted concentration was higher than the actual concentration”.

`CCCCCc1cc(O)c(C/C=C(\C)CCC=C(C)C)c(O)c1` [CBG, cannabigerol] showed an AUC(0-t) ([1]; both, in vivo, po) of 11.4 ± 2.8 ng·h/mL, a Cmax ([1]; both, in vivo, po) of 4.35 ± 1 ng/mL and an MRT ([1]; both, in vivo, po) of 2.3 ± 0.1 h. It also gave a Tmax ([1]; both, in vivo, po) of 2 h and a half-life ([1]; both, in vivo, po) of 0.9 ± 0.1 h.

`CCCCCc1cc(O)c(C/C=C(\C)CCC=C(C)C)c(O)c1C(=O)O` [CBGA, cannabigerolic acid] gave an AUC(0-t) [1, 4] of 34.1 ± 9.5 ng·h/mL, a Cmax [1, 4] of 19.7 ± 5.5 ng/mL and an MRT [1, 4] of 1.5 ± 0.2 h. For the same compound, the Tmax [1, 4] was 1 ± 0.2 h, the half-life [1, 4] was 0.7 ± 0.1 h and the “Css Ave (calculated predicted 5 half-life mean serum concentration)” value ([1]; cats, mean ± SD) was 4.8 ± 1.3 ng/mL. For the same compound, the “predicted steady state (Css Ave) versus actual serum concentration” value [2] was “predicted concentration was higher than the actual concentration”.

For `CCCCCc1cc(O)c2c(c1)OC(C)(C)c1ccc(C)cc1-2` [CBN, cannabinol], the “detectability in serum of cats” value ([1]; cats, serum) was “either below the detectable limit for the analyte or less than half of the population showed any appreciable concentration”.

With `CCCCCc1cc(O)c2c(c1)OC(C)(C)[C@@H]1CCC(C(=O)O)=C[C@@H]21` [COOH-THC, COOH-tetrahydrocannabinol] the “detectability in serum of cats” value ([1]; cats, serum) was “either below the detectable limit for the analyte or less than half of the population showed any appreciable concentration”.

For `CCCCCc1cc(O)c2c(c1)OC(C)(C)[C@H]1CCC(C(=O)O[C@@H]3O[C@H](C(=O)O)[C@@H](O)[C@H](O)[C@H]3O)=C[C@H]21` [COOH-THC-glu, COOH-glucuroniated tetrahydrocannabinol], the “detectability in serum of cats” value ([1]; cats, serum) was “either below the detectable limit for the analyte or less than half of the population showed any appreciable concentration”.

For `CCCCCc1cc(O)c2c(c1)OC(C)(C)[C@@H]1CCC(C)=C[C@@H]21` [THC, Δ9-tetrahydrocannabinol, reference compound], the “Css Ave (calculated predicted 5 half-life mean serum concentration)” value ([1]; cats, mean ± SD) was 11.9 ± 5.2 ng/mL, the “detectability in serum of cats” value ([1]; cats, serum) was “either below the detectable limit for the analyte or less than half of the population showed any appreciable concentration” and the AUC(0-t) [1, 5] was 156.5 ± 65.8 ng·h/mL. For the same compound, the Cmax [1, 6] was 40.9 ± 12.9 ng/mL, the MRT [1, 6] was 3.7 ± 0.4 h and the T1/2 el [1, 6] was 1.6 ± 0.4 h. The Tmax [1, 6] was 2 ± 0 h and the “predicted steady state (Css Ave) versus actual serum concentration” value [2] was “predicted concentration was higher than the actual concentration”.

In the case of `CCCCCc1cc2c(c(O)c1C(=O)O)C1C=C(C)CCC1C(C)(C)O2` (centres unmarked) [THCA, Δ9-tetrahydrocannabinolic acid], the “Css Ave (calculated predicted 5 half-life mean serum concentration)” value ([1]; cats, mean ± SD) is reported as 43.3 ± 13.9 ng/mL, the AUC(0-t) [1, 5] is reported as 434.0 ± 229.1 ng·h/mL and the Cmax [1, 6] is reported as 87.9 ± 34.0 ng/mL. For the same compound, the MRT [1, 6] was 5.5 ± 2.1 h, the T1/2 el [1, 6] was 3.8 ± 1.3 h and the Tmax [1, 6] was 2 ± 0.9 h. The “predicted steady state (Css Ave) versus actual serum concentration” value [2] was “no different”.
